Active and inactive are the calls of the source. No cut-off for these calls is given here.

In the assay the target is Cystic fibrosis transmembrane conductance regulator (Homo sapiens) (UniProt P13569). The assay can be described thus: Corrector activity at human CFTR deltaF508 mutant expressed in FRT cells assessed as iodide influx at 25 uM. It counts as cell-based.
Chain of Cystic fibrosis transmembrane conductance regulator (Homo sapiens) (P13569 whole entry, looked up): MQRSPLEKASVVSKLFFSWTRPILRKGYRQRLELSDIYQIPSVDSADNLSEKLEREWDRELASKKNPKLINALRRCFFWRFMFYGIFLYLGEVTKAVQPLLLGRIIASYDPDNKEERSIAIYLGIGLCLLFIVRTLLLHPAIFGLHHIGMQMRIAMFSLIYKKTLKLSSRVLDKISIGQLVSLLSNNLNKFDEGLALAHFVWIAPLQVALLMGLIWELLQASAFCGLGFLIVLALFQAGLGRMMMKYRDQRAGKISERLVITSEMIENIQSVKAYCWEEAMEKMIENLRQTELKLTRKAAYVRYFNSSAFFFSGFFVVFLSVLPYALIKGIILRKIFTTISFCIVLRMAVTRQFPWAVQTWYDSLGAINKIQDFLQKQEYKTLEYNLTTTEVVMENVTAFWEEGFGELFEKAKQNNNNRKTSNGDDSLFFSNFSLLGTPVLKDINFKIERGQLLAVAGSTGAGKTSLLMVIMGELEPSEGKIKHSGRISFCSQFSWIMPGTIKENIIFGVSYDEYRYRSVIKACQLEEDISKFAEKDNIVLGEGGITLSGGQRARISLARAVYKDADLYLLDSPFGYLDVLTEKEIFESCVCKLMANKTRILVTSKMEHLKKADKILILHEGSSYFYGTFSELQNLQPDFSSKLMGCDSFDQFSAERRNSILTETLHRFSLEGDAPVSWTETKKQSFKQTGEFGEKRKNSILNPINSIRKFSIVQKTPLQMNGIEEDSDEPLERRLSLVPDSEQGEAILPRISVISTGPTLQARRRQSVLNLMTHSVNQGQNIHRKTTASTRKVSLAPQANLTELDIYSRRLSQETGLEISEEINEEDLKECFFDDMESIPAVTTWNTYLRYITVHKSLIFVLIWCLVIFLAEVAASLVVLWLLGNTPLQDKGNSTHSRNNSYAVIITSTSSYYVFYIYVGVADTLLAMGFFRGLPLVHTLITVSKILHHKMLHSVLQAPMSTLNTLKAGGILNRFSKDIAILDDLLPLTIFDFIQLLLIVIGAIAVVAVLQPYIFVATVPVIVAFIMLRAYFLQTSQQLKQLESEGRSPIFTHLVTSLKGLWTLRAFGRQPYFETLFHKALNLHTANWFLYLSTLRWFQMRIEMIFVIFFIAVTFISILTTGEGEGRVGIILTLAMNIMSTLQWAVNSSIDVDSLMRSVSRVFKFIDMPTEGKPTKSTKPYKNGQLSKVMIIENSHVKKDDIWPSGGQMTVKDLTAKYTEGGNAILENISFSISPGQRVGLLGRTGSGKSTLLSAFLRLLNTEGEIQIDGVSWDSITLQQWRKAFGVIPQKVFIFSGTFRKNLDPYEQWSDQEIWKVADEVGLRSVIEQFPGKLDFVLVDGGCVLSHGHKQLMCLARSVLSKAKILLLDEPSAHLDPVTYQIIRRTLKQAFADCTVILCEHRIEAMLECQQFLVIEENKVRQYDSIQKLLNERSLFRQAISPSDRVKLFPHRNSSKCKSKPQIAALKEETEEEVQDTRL
In the case of `COc1ccc(Cl)cc1Nc1nc(-c2sc(NC(=O)C(C)(C)C)nc2C)cs1`, the result was Active.

With `COc1ccc(Cl)cc1Nc1nc2c(s1)CCCc1nc(NC(=O)C(C)(C)C)sc1-2`, the outcome was Active.

Consider `COc1ccc(Cl)cc1Nc1nc(-c2cccc(NC(=O)C(C)(C)C)c2)c(C)s1`, for which the result was inactive.

For `COc1ccc(Cl)cc1Nc1nc(-c2cnc(NC(=O)C(C)(C)C)s2)cs1`, the result was Active.

Turning to `COc1ccc(Cl)cc1Nc1nc(C)c(-c2csc(NC(=O)C(C)(C)C)n2)s1`, the outcome was inactive.

On to `COc1ccc(Cl)cc1Nc1nc(-c2cccc(NC(=O)C(C)(C)C)c2)cs1`, for which the result was inactive.

(Values after ChEMBL document CHEMBL1140116, “Potent s-cis-locked bithiazole correctors of DeltaF508 cystic fibrosis transmembrane conductance regulator cellular processing for cystic fibrosis therapy” (J Med Chem, 2008).)
